US4698350A, “1-ethyl-6-fluoro-1,4-dihydro- 7-(2,6-dimethyl-4-pyridinyl)-4-oxo-3-quinolinecarboxylic acid and antibacterial use thereof” (Sterling Drug Inc., priority 1984, dated 1987)
Converted amounts (≈) assume the structure as drawn. Where two headings read alike, the source gives them in different places.

Experiments:
[1] = tested on: Staphylococcus aureus 39881 (Methicillin-resistant); test: Mouse protection test, S. aureus 39881 (methicillin-resistant) infection; format: in vivo, ICR mice; Staphylococcus aureus; details: for Survivors/Total: two doses
Experimental: (§1) ICR mice, female, 18-20 grams each.
(§2) Solutions of Win 52,522 and Win 35,439 were prepared by dissolving the appropriate weight of drug in 0.3 to 0.4 ml of 1 N NaOH and then bringing the solutions to the desired volume with distilled water. Methicillin and vancomycin were dissolved directly in distilled water.
The culture was streaked onto three Brain Heart Infusion Agar plates and incubated 16 hours at 37° C. The cells were washed off each plate with five ml of saline and the cell suspension was shaken with glass beads for two minutes on a paint shaker. The suspension was diluted with saline so that a […] gave a 44% T reading on a B+L Spectronic 20 (650 nm) calibrated with saline. The stock suspension was diluted 1:24 (10 ml stock suspension+230 ml 5% mucin) to obtain the test inoculum containing 1.55×10^9 cells/ml.
(§3) Mice were inoculated intraperitoneally with 0.5 ml of the bacterial test inoculum.
Mice were medicated twice: at one-half and four hours postinfection. The drugs were administered by both subcutaneous (0.2 ml) and oral (0.5 ml) routes.
(§4) Deaths were recorded daily for seven days for all tests. Fifty percent protective dose values (PD50's) were calculated using probit analysis [SAS Users Guide: Statistics, 1982 Edition, SAS Institute, Inc., Cary, N.C.].

[2] = tested on: Staphylococcus aureus Smith; test: Mouse protection test, S. aureus Smith infection, single dose; format: in vivo, ICR mice; Staphylococcus aureus; details: for Survivors/Total: single dose
Experimental: as §1, §2
Two and one-half ml of pool were added to 247.5 ml of 5% gastric mucin to provide the test inoculum containing 2.1×10^4 cells/ml.
as §3
1. Single dose test--Mice were medicated subcutaneously or orally once (0.5 ml) one-half hour postinfection.
as §4

S. aureus = test: In vitro MIC/MBC summary (Table II); format: cell-based; details: Staphylococcus aureus, 15 S. aureus strains
Experimental: (§5) Win 52,522 and Win 35,439 were solubilized in 0.1 ml of 0.5 N NaOH/mg of compound and diluted in sterile distilled water to 160 mcg/ml. Vancomycin and methicillin were solubilized in sterile distilled water to 1250 mcg/ml of base compound. The stock solutions were sterilized by filtration through membrane filters with a 0.45 μm pore size.
(§6) The bacterial cultures listed in Table I (hereinbelow) were grown overnight at 37° C. in MHB for all cultures except the Streptococcus strains. These were grown in BHI+10% NHS. The overnight broth cultures were adjusted to an optical density of 0.10 (650 nm, B L Spectronic 20) in sterile distilled water and subsequently diluted to 6.7×10^6 cells/ml in MHB or BHI+1% NHS.
(§7) Serial two-fold dilutions of the compound solutions were prepared in MHB (or in BHI+1% NHS for tests with Streptococci) and dispensed into 96-well microtiter trays in a volume of 0.1 ml/well using a Sandy Springs (Bellco Glass Co.) dispenser. The trays were then inoculated with 0.0015 ml of a suspension containing 6.7×10^6 cells/ml of the appropriate inoculum using a MIC-2000 inoculator (Dynatech Corp.) resulting in a final inoculum of approximately 1×10^4 cells/well or 1×10^5 cells/ml. The trays were incubated at 37° C. for 18-20 hours and the minimal inhibitory concentration (MIC), defined as the lowest concentration of compound to inhibit visible bacterial growth, was recorded.
(§8) After the MIC values were recorded, the contents in the microtiter trays were thoroughly mixed on a Bellco Mini-orbital Shaker (Bellco Glass Co.) for 3 min. at a setting of 8. A portion (0.0015 ml) from each well was then transferred via an MIC-2000 inoculator to plates containing MHA or BHI agar+10% NHS. The plates were incubated at 37° C. for 18-20 hrs. The minimal bactericidal concentration (MBC), defined as the lowest concentration of compound that prevented the formation of a recognizable colony on the agar surface, was recorded.

Streptococcus sp. = test: In vitro MIC/MBC summary (Table II); format: cell-based; details: Streptococcus
Experimental: as §5, §6, §7, §8

S. aureus S-500 = test: In vitro antibacterial MIC/MBC test; format: cell-based; details: Staphylococcus aureus, S500
Experimental: as §5, §6, §7, §8

S. pyogenes (89) = test: In vitro antibacterial MIC/MBC test; format: cell-based; details: Streptococcus pyogenes
Experimental: as §5, §6, §7, §8

S. pyogenes C203 = test: In vitro antibacterial MIC/MBC test; format: cell-based; details: Streptococcus pyogenes, C203
Experimental: as §5, §6, §7, §8

S. aureus 10-81 = test: In vitro antibacterial MIC/MBC test; format: cell-based; details: Staphylococcus aureus, 1081
Experimental: as §5, §6, §7, §8

S. epidermidis 1-5-H = test: In vitro antibacterial MIC/MBC test; format: cell-based; details: Staphylococcus epidermidis, 15H
Experimental: as §5, §6, §7, §8

S. faecalis (11700) = test: In vitro antibacterial MIC/MBC test; format: cell-based; details: Enterococcus faecalis, ATCC11700
Experimental: as §5, §6, §7, §8

S. aureus 34-81 = test: In vitro antibacterial MIC/MBC test; format: cell-based; details: Staphylococcus aureus, 3481
Experimental: as §5, §6, §7, §8

S. pneumoniae Type III = test: In vitro antibacterial MIC/MBC test; format: cell-based; details: Streptococcus pneumoniae
Experimental: as §5, §6, §7, §8

S. aureus Glorgio = test: In vitro antibacterial MIC/MBC test; format: cell-based; details: Staphylococcus aureus
Experimental: as §5, §6, §7, §8

[3] = Staphylococcus aureus, sc, 168 h, read-out: Protective Dose 50% (95% Confidence Limits)

## CN[C@H](CC(C)C)C(=O)N[C@H]1C(=O)N[C@@H](CC(N)=O)C(=O)N[C@H]2C(=O)N[C@H]3C(=O)N[C@H](C(=O)N[C@H](C(=O)O)c4cc(O)cc(O)c4-c4cc3ccc4O)[C@H](O)c3ccc(c(Cl)c3)Oc3cc2cc(c3O[C@@H]2O[C@H](CO)[C@@H](O)[C@H](O)[C@H]2O[C@H]2C[C@](C)(N)[C@H](O)[C@H](C)O2)Oc2ccc(cc2Cl)[C@H]1O [Vancomycin]
[1]; 6.25 mg/kg sc
  Survivors/Total: 0/10
[1]; 12.5 mg/kg sc
  Survivors/Total: 1/10
[1]; 25 mg/kg sc
  Survivors/Total: 9/10
[1]; 50 mg/kg sc
  Survivors/Total: 10/10
[1]; [3]
  ED50: 17.7 mg/kg
[2]; 0.78 mg/kg sc
  Survivors/Total: 2/10
[2]; 1.56 mg/kg sc
  Survivors/Total: 9/10
[2]; 3.13 mg/kg sc
  Survivors/Total: 9/10
[2]; 6.25 mg/kg sc
  Survivors/Total: 10/10
[2]; 12.5 mg/kg sc
  Survivors/Total: 10/10
[2]; [3]
  ED50: 1.1 mg/kg
S. aureus; read-out: MBC 50%
  MBC: 1 µg/mL (≈ 0.69 µM)
S. aureus; read-out: MBC 90%
  MBC: 1 µg/mL (≈ 0.69 µM)
S. aureus; read-out: MBC Range
  MBC: 0.5 to 1 µg/mL (≈ 0.345 to 0.69 µM)
S. aureus; read-out: MIC 50%
  MIC50: 1 µg/mL (≈ 0.69 µM)
S. aureus; read-out: MIC 90%
  MIC90: 1 µg/mL (≈ 0.69 µM)
S. aureus; read-out: MIC Range
  MIC: 0.5 to 1 µg/mL (≈ 0.345 to 0.69 µM)
Streptococcus sp.
  MIC50: 2 µg/mL (≈ 1.38 µM)
  MIC90: 16 µg/mL (≈ 11 µM)
Streptococcus sp.; read-out: MBC 50%
  MBC: 16 µg/mL (≈ 11 µM)
Streptococcus sp.; read-out: MBC 90%
  MBC: > 125 µg/mL
Streptococcus sp.; read-out: MIC Range
  MIC: 0.06 to 16 µg/mL (≈ 0.0414 to 11 µM)
S. aureus S-500
  MBC: 1 µg/mL (≈ 0.69 µM)
  MIC: 1 µg/mL (≈ 0.69 µM)
S. pyogenes (89)
  MBC: 16 µg/mL (≈ 11 µM)
  MIC: 16 µg/mL (≈ 11 µM)
S. pyogenes C203
  MBC: 16 µg/mL (≈ 11 µM)
  MIC: 16 µg/mL (≈ 11 µM)
S. aureus 10-81
  MBC: 1 µg/mL (≈ 0.69 µM)
  MIC: 1 µg/mL (≈ 0.69 µM)
S. epidermidis 1-5-H
  MBC: 2 µg/mL (≈ 1.38 µM)
  MIC: 2 µg/mL (≈ 1.38 µM)
S. faecalis (11700)
  MBC: > 125 µg/mL
  MIC: 1 µg/mL (≈ 0.69 µM)
S. aureus 34-81
  MBC: 0.5 µg/mL (≈ 0.345 µM)
  MIC: 0.5 µg/mL (≈ 0.345 µM)
S. pneumoniae Type III
  MBC: 16 µg/mL (≈ 11 µM)
  MIC: ≤ 0.06 µg/mL
S. aureus Glorgio
  MBC: 1 µg/mL (≈ 0.69 µM)
  MIC: 1 µg/mL (≈ 0.69 µM)
